Experimental findings from patent US6583274B1, “Crystalline forms of macrolide antibiotic” (Pfizer Inc., priority 1999, dated 2003) are described below.

A short description of data set [1]: hygroscopicity measurement (weight vs relative humidity on storage). The format is physicochemical. The settings on record: for hygroscopicity: about 87% relative humidity, ambient temperature. The protocol:
FIG. 3: Weight (Pct) - Relative humidity (Pct).
As used herein, the term “non-hygroscopic” when used to describe a composition of matter means that the composition of matter absorbs moisture at a rate of less than about 0.4% over 24 hours at 90% relative humidity.
A particular advantage conferred by this form is its lack of hygroscopicity.
From this and other data, it has been determined that crystalline anhydrous CP-472,295 is non-hygroscopic at about 87% relative humidity for about 72 hours at ambient temperature. This unexpected property allows the low-cost, efficient handling and storage of the drug, and the facile incorporation of accurate amounts of the drug into a variety of dosage forms.
Crystalline CP-472,295 monohydrate, like the crystalline anhydrous form described above, is advantageously non-hygroscopic. […] From this and other data, it has been determined that crystalline CP-472,295 monohydrate is non-hygroscopic at about 87% relative humidity for about 7 days at ambient temperature. This unexpected property allows the low-cost, efficient handling and storage of the drug, and the facile incorporation of accurate amounts of the drug into a variety of dosage forms.
By contrast, the pseudomorph formed when the monohydrate loses water is hygroscopic, and reabsorbs the water of hydration within about 4 hours when stored at about 87% relative humidity at ambient temperature.

Data set [2] is described as follows: water loss under routine handling conditions. The format is physicochemical. The settings on record: routine handling conditions (e.g., 25° C. and 70% relative humidity).

Take `CCCNC[C@]1(O)[C@H](C)O[C@@H](O[C@H]2[C@H](C)[C@@H](O[C@@H]3O[C@H](C)C[C@H](N(C)C)[C@H]3O)[C@@](C)(O)C[C@@H](C)CN[C@H](C)[C@@H](O)[C@](C)(O)[C@@H](CC)OC(=O)[C@@H]2C)C[C@@]1(C)OC` [crystalline CP-472,295 monohydrate]: in data set [1] (about 7 days), the hygroscopicity entry was “non-hygroscopic (absorbs moisture at a rate of less than about 0.4% over 24 hours at 90% relative humidity)”.
With `CCCNC[C@]1(O)[C@H](C)O[C@@H](O[C@H]2[C@H](C)[C@@H](O[C@@H]3O[C@H](C)C[C@H](N(C)C)[C@H]3O)[C@@](C)(O)C[C@@H](C)CN[C@H](C)[C@@H](O)[C@](C)(O)[C@@H](CC)OC(=O)[C@@H]2C)C[C@@]1(C)OC` [pseudomorph], in data set [1] (pseudomorph formed when the monohydrate loses water), the hygroscopicity entry is recorded as “hygroscopic”. The “time to reabsorb the water of hydration” value in data set [1] (stored at about 87% relative humidity at ambient temperature) is ≤ 4 h.
Turning to `CCCNC[C@]1(O)[C@H](C)O[C@@H](O[C@H]2[C@H](C)[C@@H](O[C@@H]3O[C@H](C)C[C@H](N(C)C)[C@H]3O)[C@@](C)(O)C[C@@H](C)CN[C@H](C)[C@@H](O)[C@](C)(O)[C@@H](CC)OC(=O)[C@@H]2C)C[C@@]1(C)OC` [crystalline CP-472,295 sesquahydrate], the “loss of water (stability of hydrate)” value in data set [2] was “readily loses water”.
As for `CCCNC[C@]1(O)[C@H](C)O[C@@H](O[C@H]2[C@H](C)[C@@H](O[C@@H]3O[C@H](C)C[C@H](N(C)C)[C@H]3O)[C@@](C)(O)C[C@@H](C)CN[C@H](C)[C@@H](O)[C@](C)(O)[C@@H](CC)OC(=O)[C@@H]2C)C[C@@]1(C)OC` [crystalline anhydrous CP-472,295], the hygroscopicity entry in data set [1] (about 72 hours) is on record as “non-hygroscopic (absorbs moisture at a rate of less than about 0.4% over 24 hours at 90% relative humidity)”.
